As usually defined, the EC50 is the midpoint of the concentration-response curve.

For experiment [1], the system named is p53 signaling (p53RE-bla HCT-116 cells).
The test system is the same in experiment [2]. Nature of the experiment: cells. The experiment is classed as cell-based.
Experiment [3] has the same test system. This is another data set of the same source.
In experiment [4] the test system is p53RE-bla HCT-116 cells.
[5] abbreviates: Homo sapiens, HCT-116, read-out: EC50, p53 activation, cherry pick confirmation.
[6] abbreviates: Homo sapiens, HCT-116, read-out: Efficacy, p53 activation, cherry pick confirmation.
Where [7] appears, read: read-out: EC50, p53 activation, cherry pick confirmation.
[8] abbreviates: read-out: EC50, p53 activation, primary screening.
The mark [9] stands for this setting: Homo sapiens, HCT-116, read-out: EC50, p53 activation, primary screening.
Where [10] appears, read: Homo sapiens, HCT-116, read-out: Efficacy, p53 activation, primary screening.
Where [11] appears, read: read-out: p53 activation EC50, cherry pick confirmation.
The mark [12] stands for this setting: read-out: p53 activation EC50, primary screening.

Values joined by “and” are separate entries in the source; they are usually repeats but may differ in a detail not shown here. Equal entries are not always repeated. Where two headings read alike, the source gives them in different places.

`CCN(CC)CCNc1ccc(CO)c2sc3ccccc3c(=O)c12` [Hycanthone]: in experiment [1], the “EC50, p53 activation, cherry pick confirmation” value is “inactive” and the “Efficacy, p53 activation, cherry pick confirmation” value is “inactive”. For the same molecule, in experiment [2] (setting [5]), the EC50 stood at 18.4 µM. Moreover, the Emax in experiment [2] (setting [6]) came out at 500%. Further, in experiment [3], the “EC50, p53 activation, cherry pick confirmation” value is “inactive” and the “Efficacy, p53 activation, cherry pick confirmation” value is “inactive”. Moreover, in experiment [4], the “EC50, viability, cherry pick confirmation” value is “inactive”; the “EC50, viability, primary screening” value was “inactive”; the “Efficacy, viability, cherry pick confirmation” value is “inactive”; the “Efficacy, viability, primary screening” value was “inactive”.

As to `c1cc(OCC2CO2)ccc1Cc1ccc(OCC2CO2)cc1` (centres unmarked) [Bis[4-(glycidyloxy)phenyl]methane], in experiment [1], the “EC50, p53 activation, cherry pick confirmation” value is “inactive”; the “EC50, p53 activation, primary screening” value is “inactive”; the “Efficacy, p53 activation, cherry pick confirmation” value was “inactive”; the “Efficacy, p53 activation, primary screening” value is “inactive”. Moreover, in experiment [2], the “Efficacy, p53 activation, cherry pick confirmation” value turned out to be 31.4403 and the “Efficacy, p53 activation, primary screening” value amounted to 46.3017. In experiment [2] (setting [7]), the EC50 stood at 26.4 µM. Besides, the half-maximal effective concentration (EC50) in experiment [2] (setting [8]) was 47.6 µM. For the same molecule, in experiment [3], the “EC50, p53 activation, cherry pick confirmation” value is “inactive”; the “EC50, p53 activation, primary screening” value was “inactive”; the “Efficacy, p53 activation, cherry pick confirmation” value was “inactive”; the “Efficacy, p53 activation, primary screening” value was “inactive”. Moreover, in experiment [4], the “EC50, viability, cherry pick confirmation” value was “inactive”; the “EC50, viability, primary screening” value was “inactive”; the “Efficacy, viability, cherry pick confirmation” value is “inactive”; the “Efficacy, viability, primary screening” value was “inactive”.

Take `Cn1cnc([N+](=O)[O-])c1Sc1ncnc2nc[nH]c12` [Azathioprine]: in experiment [1], the “EC50, p53 activation, cherry pick confirmation” value was “inactive”; the “EC50, p53 activation, primary screening” value is “inactive”; the “Efficacy, p53 activation, cherry pick confirmation” value was “inactive”; the “Efficacy, p53 activation, primary screening” value is “inactive”. In experiment [2], the “EC50, p53 activation, cherry pick confirmation” value was “inactive” and the “Efficacy, p53 activation, cherry pick confirmation” value is “inactive”. The concentration giving a half-maximal response (EC50) in experiment [2] (setting [9]) is 33.7 µM. Also, the Emax in experiment [2] (setting [10]) amounted to 39.9%. Moreover, in experiment [3], the “EC50, p53 activation, cherry pick confirmation” value was “inactive”; the “EC50, p53 activation, primary screening” value is “inactive”; the “Efficacy, p53 activation, cherry pick confirmation” value is “inactive”; the “Efficacy, p53 activation, primary screening” value is “inactive”. In addition, in experiment [4], the “EC50, viability, cherry pick confirmation” value is “inactive”; the “EC50, viability, primary screening” value was “inactive”; the “Efficacy, viability, cherry pick confirmation” value is “inactive”; the “Efficacy, viability, primary screening” value is “inactive”.

On to `CN(C)c1ccc(C(=O)c2ccc(N(C)C)cc2)cc1` [Michler's ketone], for which, in experiment [1], the “p53 activation EC50, cherry pick confirmation” value was “inactive”; the “p53 activation EC50, primary screening” value was “inactive”; the “p53 activation efficacy, cherry pick confirmation” value was “inactive”; the “p53 activation efficacy, primary screening” value was “inactive”. In experiment [2], the “p53 activation EC50, cherry pick confirmation” value is “inactive” and the “p53 activation efficacy, cherry pick confirmation” value is “inactive”. In addition, the EC50 in experiment [2] (Homo sapiens, HCT-116, read-out: p53 activation EC50, primary screening) came out at 2.8 µM. Further, in experiment [2] (Homo sapiens, HCT-116, read-out: p53 activation efficacy, primary screening), the Emax turned out to be 37.9%. Besides, in experiment [3], the “p53 activation EC50, cherry pick confirmation” value was “inactive”; the “p53 activation EC50, primary screening” value was “inactive”; the “p53 activation efficacy, cherry pick confirmation” value is “inactive”; the “p53 activation efficacy, primary screening” value was “inactive”. Besides, in experiment [4], the “Viability EC50, cherry pick confirmation” value was “inactive”; the “Viability EC50, primary screening” value is “inactive”; the “Viability efficacy, cherry pick confirmation” value is “inactive”; the “Viability efficacy, primary screening” value was “inactive”.

Consider `COP(=O)(OC)Oc1ccc([N+](=O)[O-])cc1` [Methylparaoxon], for which the “EC50, p53 activation, cherry pick confirmation” value in experiment [1] is “inactive”. In experiment [2], the “EC50, p53 activation, cherry pick confirmation” value was “inactive”; the “EC50, p53 activation, primary screening” value is “inactive”; the “Efficacy, p53 activation, cherry pick confirmation” value was “inactive”; the “Efficacy, p53 activation, primary screening” value was “inactive”. In addition, in experiment [3], the half-maximal effective concentration (EC50) came to 20.1 µM. In addition, the EC50 in experiment [3] (setting [7]) came out at 20 µM. For the same molecule, in experiment [4], the “EC50, viability, cherry pick confirmation” value is “inactive”; the “EC50, viability, primary screening” value is “inactive”; the “Efficacy, viability, cherry pick confirmation” value is “inactive”; the “Efficacy, viability, primary screening” value is “inactive”.

For the molecule `Nc1cc(Cl)c(-c2cc(Cl)c(N)cc2Cl)cc1Cl` [2,2',5,5'-Tetrachlorobenzidine], the “p53 activation EC50, cherry pick confirmation” value in experiment [1] and in experiment [3] was “inactive” in each case. The “p53 activation EC50, primary screening” value in experiment [1] and in experiment [3] was “inactive” in each case. Also, the “p53 activation efficacy, cherry pick confirmation” value was “inactive” in experiment [1], 92.1083 in experiment [2] and “inactive” in experiment [3]. Also, the results for the “p53 activation efficacy, primary screening” value in experiment [1], in experiment [2] and in experiment [3] were “inactive”, 80.5693 and “inactive”, respectively. Further, the EC50 was 36.2 µM in experiment [2] (setting [11]); 17.8 µM in experiment [2] (setting [12]); 49.4 µM and 51.3 µM in experiment [4] (read-out: Viability EC50, cherry pick confirmation); 49.5 µM (2×) and 37.5 µM in experiment [4] (read-out: Viability EC50, primary screening). Further, in experiment [4], the “Viability EC50, cherry pick confirmation” value was “inactive”.

For `O=c1cc(-c2ccccc2)oc2cc(O)cc(O)c12` [Chrysin], in experiment [1], the “EC50, p53 activation, cherry pick confirmation” value is “inactive”; the “EC50, p53 activation, primary screening” value is “inactive”; the “Efficacy, p53 activation, cherry pick confirmation” value was “inactive”; the “Efficacy, p53 activation, primary screening” value was “inactive”. Moreover, the 50% effective concentration (EC50) in experiment [2] (setting [5]) was found to be 45 µM. In addition, in experiment [2] (setting [9]), the EC50 came to 49.5 µM. For the same molecule, in experiment [2] (setting [6]), the Emax turned out to be 43.6%. For the same molecule, the Emax in experiment [2] (setting [10]) is 38.6%. In addition, in experiment [3], the “EC50, p53 activation, cherry pick confirmation” value was “inactive”; the “EC50, p53 activation, primary screening” value was “inactive”; the “Efficacy, p53 activation, cherry pick confirmation” value was “inactive”; the “Efficacy, p53 activation, primary screening” value was “inactive”. In experiment [4], the “EC50, viability, cherry pick confirmation” value is “inactive”; the “EC50, viability, primary screening” value was “inactive”; the “Efficacy, viability, cherry pick confirmation” value is “inactive”; the “Efficacy, viability, primary screening” value was “inactive”.

As to `COc1cccc2c1cc([N+](=O)[O-])c1c(C(=O)[O-])cc3c(c12)OCO3.[Na+]` [Sodium aristolochate-I], in experiment [1], the “EC50, p53 activation, cherry pick confirmation” value was “inactive”; the “EC50, p53 activation, primary screening” value was “inactive”; the “Efficacy, p53 activation, cherry pick confirmation” value was “inactive”; the “Efficacy, p53 activation, primary screening” value was “inactive”. Also, in experiment [2], the “EC50, p53 activation, cherry pick confirmation” value was “inactive”; the “Efficacy, p53 activation, cherry pick confirmation” value is “inactive”; the “Efficacy, p53 activation, primary screening” value was 50.4333. Further, the EC50 in experiment [2] (setting [8]) was found to be 3.65 µM. Moreover, in experiment [3], the “EC50, p53 activation, cherry pick confirmation” value was “inactive”; the “EC50, p53 activation, primary screening” value was “inactive”; the “Efficacy, p53 activation, cherry pick confirmation” value is “inactive”; the “Efficacy, p53 activation, primary screening” value was “inactive”. Also, in experiment [4], the “EC50, viability, cherry pick confirmation” value was “inactive”; the “EC50, viability, primary screening” value is “inactive”; the “Efficacy, viability, primary screening” value is “inactive”. Further, the half-maximal effective concentration (EC50) in experiment [4] (read-out: EC50, viability, cherry pick confirmation) is 9.67 µM.

With `Nc1ncn([C@@H]2O[C@H](CO)[C@@H](O)[C@H]2O)c(=O)n1` [5-Azacytidine], in experiment [1], the “p53 activation EC50, cherry pick confirmation” value was “inactive”; the “p53 activation EC50, primary screening” value is “inactive”; the “p53 activation efficacy, cherry pick confirmation” value was “inactive”; the “p53 activation efficacy, primary screening” value was “inactive”. Besides, in experiment [2], the “p53 activation efficacy, cherry pick confirmation” value was 71.649 and the “p53 activation efficacy, primary screening” value is on record as 59.244. Further, the EC50 in experiment [2] (setting [11]) was found to be 17.7 µM. Besides, the concentration giving a half-maximal response (EC50) in experiment [2] (setting [12]) was found to be 11.2 µM. Also, in experiment [3], the “p53 activation EC50, cherry pick confirmation” value was “inactive”; the “p53 activation EC50, primary screening” value was “inactive”; the “p53 activation efficacy, cherry pick confirmation” value was “inactive”; the “p53 activation efficacy, primary screening” value is “inactive”. In addition, in experiment [4], the “Viability EC50, cherry pick confirmation” value was “inactive”; the “Viability EC50, primary screening” value was “inactive”; the “Viability efficacy, cherry pick confirmation” value is “inactive”; the “Viability efficacy, primary screening” value was “inactive”.

As for `COC(=O)c1nc(Cl)c(Cl)nc1N`, in experiment [1], the “EC50, p53 activation, cherry pick confirmation” value is “inactive”; the “EC50, p53 activation, primary screening” value is “inactive”; the “Efficacy, p53 activation, cherry pick confirmation” value is “inactive”. Besides, in experiment [2], the “Efficacy, p53 activation, cherry pick confirmation” value is listed as 118.088 and the “Efficacy, p53 activation, primary screening” value is listed as 51.0133. For the same molecule, in experiment [2] (setting [7]), the EC50 worked out at 24 µM. The concentration giving a half-maximal response (EC50) in experiment [2] (setting [8]) stood at 21.5 µM. In addition, in experiment [3], the “EC50, p53 activation, cherry pick confirmation” value is “inactive” and the “Efficacy, p53 activation, cherry pick confirmation” value was “inactive”. Moreover, the EC50 in experiment [3] (setting [8]) came to 22.4 µM. In addition, in experiment [4], the “EC50, viability, cherry pick confirmation” value was “inactive”; the “EC50, viability, primary screening” value is “inactive”; the “Efficacy, viability, cherry pick confirmation” value is “inactive”; the “Efficacy, viability, primary screening” value was “inactive”.

The record behind these values is publication PMC9151520 (Archives of Toxicology, 2022).
